“Also recorded” adds a separate entry of the source. Like-named read-outs stand apart in the source and are kept apart here.
Experiments:
C. albicans (ATCC 24433) = experiment: In vitro time kill test, yeast; type: cell-based, Candida albicans; conditions: for Ratio fungicidal activity/cytotoxicity: FIG. 3, # of log10 reduction / fold-change in Trypan Blue staining vs PBS (HCLE), 1 min contact, C. albicans; for Reduction in viable colonies: FIG. 1A, full strength
Description: (§1) In Vitro Time Kill Tests. Microtiter time kill tests were carried out in vitro according to the published CLSI methods (M27-A2).^22
The inoculum was prepared by adjustment of the optical density at 600 nm (OD600) to 1.0 (corresponding to approximately 1×10^6 CFU/mL), and dilution by 1:10 in the final solution. To confirm the starting inoculum size, yeasts were plated […] and colonies counted after growth for 24 hrs at 37° C. The test solutions were neutralized at each time point by ten-fold dilution in Dey-Engley neutralizing broth (Sigma-Aldrich; St Louis, Mo.), and serially track diluted (PMID: 9343684) on Sabouraud dextrose agar (six serial 1:10 dilutions, 0.01 mL each) in technical triplicate. Colonies were counted and recorded following aerobic incubation for 24 hrs at 37° C.
(§2) To investigate the fungicidal activity of various antibiotics and antimicrobials, the reduction in fungal load after short contact times (0-15 min, FIGS. 2-3), to account for the effect of rapid dilution by the tear film, as occurs in patients after topical instillation, was measured.^23 The detection limit for time kill tests was approximately 100 CFU/mL for C. albicans, and 1 CFU/mL for F. solani and A. fumigatus (corresponding to a ≥3 log difference from the starting inoculum). 20-300 cells were considered a reliable counting range per dilution, and values were averaged when more than one dilution in the same plate were within this range.

[1] = test system: F. solani (ATCC MYA-3636); experiment: In vitro time kill test, filamentous fungi; type: cell-based, Fusarium solani; conditions: for Reduction in viable conidia: FIG. 2C, within 1 min of contact, Polytrim full strength, PI 0.5%, BAK 40 µg/mL, #3-IL 10 mM; for Ratio fungicidal activity/cytotoxicity: FIG. 3, # of log10 reduction / fold-change in Trypan Blue staining vs PBS (HCLE), 1 min contact, F. solani
Description: as §1
(§3) ii) Filamentous fungi: The antibiotic solutions, at either full or 1/10 strength, and antiseptics were inoculated with approximately 2×10^5-2×10^6 conidia/mL of F. solani or A. fumigatus in RPMI broth (buffered with MOPS at pH 7.0; Mediatech; Manassas, Va.) for 0-15 min. Conidia were collected by flooding the agar plates with 10 mL of sterile 1×PBS and 0.1% Tween® 20 (Sigma Aldrich; St Louis, Mo.). The solution was transferred to a sterile conical tube, and particles were allowed to settle for 10 min. The resulting supernatant was transferred to a new sterile conical tube and centrifuged at 3,000×g for 5 min. The supernatant was discarded, the remaining pellet was re-suspended in RPMI broth (buffered with MOPS at pH 7.0), and the OD600 was adjusted to 1.0. In the final test solutions, at each time point the inoculum was diluted 1:10 and neutralized in Dey-Engley neutralizing broth (Sigma-Aldrich; St Louis, Mo.). Neutralized cultures were then serially diluted and plated on Sabouraud dextrose agar (two serial 1:10 dilutions, 0.1 mL each) in technical duplicate. Viable conidia were counted and recorded following aerobic incubation for 48 hrs (or as soon as growth was visible) at 25-35° C.
as §2

[2] = test system: A. fumigatus (ATCC MYA-3626); experiment: In vitro time kill test, filamentous fungi; type: cell-based, Aspergillus fumigatus; conditions: for Ratio fungicidal activity/cytotoxicity: FIG. 3, # of log10 reduction / fold-change in Trypan Blue staining vs PBS (HCLE), 1 min contact, A. fumigatus
Description: as §1, §3, §2

[3] = test system: human corneal-limbal epithelial cells (HCLE); type: cell-based; conditions: for Trypan Blue staining (% stained area per image) compared to control treatment TX-100 (1%): FIG. 2A, confluent HCLE monolayers, 1 min of contact, BAK 40 µg/mL, PI 0.5%, #3-IL 10 mM; for Cytotoxicity / toxicity: HCLE cells, post-exposure Trypan blue staining
Description: In Vitro Toxicity Tests. Trypan Blue assays for toxicity of various antimicrobial agents were conducted using human corneal cells. Telomerase-immortalized human corneal-limbal epithelial cells (HCLE) were thawed at 37° C. and quickly transferred to a sterile T75 cell culture flask. Cells were grown in keratinocyte serum-free medium (KSFM; Gibco™; Thermofisher Scientific; Waltham, Mass.) supplemented with bovine pituitary extract (25 μg/mL), epidermal growth factor (0.2 ng/mL), calcium chloride (0.4 mM CaCl2[…]2H2O; Sigma-Aldrich; St Louis, Mo.), and 1× penicillin/streptomycin, at 37° C. with 5% CO2. Once cells were confluent, they were passaged following trypsinization in 12- or 24-well plates. After incubation with Trypsin-EDTA (0.05%, Gibco™; Thermofisher Scientific; Waltham, Mass.) for 5-10 min at 37° C. with 5% CO2, the reaction was stopped with an equivalent volume of neutralizing medium (Dulbecco's Modified Eagle Medium/Nutrient Mixture F-12, DMEM/F-12, with HEPES and 10% newborn calf serum), centrifuged at 5,000×g for 5 min, and re-suspended in supplemented KSFM. Experiments were performed using cells from passages 31 to 36. Once cells reached confluency, they were gently washed twice with DMEM/F-12 (Gibco™; Thermofisher Scientific; Waltham, Mass.) and incubated with an antimicrobial agent for 1 min (n=2 wells per group). Controls included 1×PBS (diluent) and 1% TX-100 (cell permeabilizer). After exposure to various agents, the cells were washed three times with DMEM/F-12, incubated with 0.2% Trypan Blue for 5 min, and washed again three times with DMEM/F-12. The remaining media was aspirated and replaced with 1×PBS for imaging. Macro-images of the culture plate were taken with a smartphone camera (iPhone 7; Apple Inc.; Cupertino, Calif.), and 10× images were taken with an inverted microscope (Eclipse TS100; Nikon; Tokyo, Japan) attached to a digital camera (SPOT Insight Fire Wire; Diagnostic Instruments Inc.; Sterling Heights, Mich.). 3-6 images/well were obtained in clockwise direction from areas immediately adjacent to the center of the well, and without overlapping areas. Images were quantified in ImageJ Fiji software to determine the amount of cell uptake of Trypan Blue. Macros were created from the Color Threshoulder plugin (G. Landini) to batch process the images after color matching in Photoshop to reference images per treatment group. % Area of Trypan Blue staining per image was calculated as follows: (area of blue/area of all)×100%.

[4] = test system: Candida albicans (ATCC 24433), Fusarium solani (ATCC MYA-3636), and Aspergillus fumigatus (ATCC MYA-3626); experiment: In vitro antifungal testing, statements not resolved by species; type: cell-based; conditions: for Efficacy/toxicity ratio, overall rank: fungicidal activity vs HCLE cytotoxicity; for Efficacy/toxicity ratio, overall rank / Antifungal / fungicidal activity in vitro: species not resolved; for Antifungal / fungicidal activity in vitro: agents at eye-drop or stated concentration
Description: Several commonly used antibiotics were tested in vitro against Candida albicans (ATCC 24433), Fusarium solani (ATCC MYA-3636), and Aspergillus fumigatus (ATCC MYA-3626). Time kill activity and minimum inhibitory concentrations (MIC) were determined. Also the antiseptics benzalkonium chloride (BAK), povidone-iodine (PI), and ionic liquids (ILs) consisting of a 1:1 mixture of choline and undecanoic acid, were tested. Toxicity was assayed in vitro on cultures of human corneal epithelial cells, subjected to Trypan Blue staining. Adhesion and tissue invasion experiments were also carried out, with or without γ-irradiation, and by analysis with fluorescent microscopy.
as §1

[5] = 1:1 IL at 10 mM in 1×PBS
[6] = test system: Candida, Aspergillus, and Fusarium; conditions: 0.01% hypochlorous acid (Avenova), cited from earlier work
[7] = cited from earlier work; for Tolerability / ocular safety (words): clinical or long-term topical ocular use

Row | Compound | Ratio fungicidal activity/cytotoxicity (C. albicans (ATCC 24433)) | Reduction in viable conidia [1] | Ratio fungicidal activity/cytotoxicity [1] | Ratio fungicidal activity/cytotoxicity [2] | Trypan Blue staining (% stained area per image) compared to control treatment TX-100 (1%) [3] | Cytotoxicity / toxicity [3] | Efficacy/toxicity ratio, overall rank [4] | Antifungal / fungicidal activity in vitro [4] | Tolerability / ocular safety (words) [7] | other results
1 | Choline undecanoate (1:1) [choline-undecanoate IL] | > 1 | 2 log10 | > 1 | > 1 | significantly lower amount of staining | virtually non-toxic | performed even better | effective |  | Reduction in viable C. albicans (C. albicans (ATCC 24433); 10 mM, within 1 min): 1-4 log; Ratio fungicidal activity/cytotoxicity (C. albicans (ATCC 24433); listed as novel IL): highest ratios; Reduction in viable F. solani ([1]; 10 mM, within 1 min): 1-4 log; Ratio fungicidal activity/cytotoxicity ([1]; listed as novel IL): highest ratios; Reduction in viable A. fumigatus ([2]; 10 mM, within 1 min): 1-4 log; Ratio fungicidal activity/cytotoxicity ([2]; listed as novel IL): highest ratios; Contact time within which in vitro fungicidal activity was exhibited ([4]; species-, contact time- and concentration-dependent): 1 to 15 min; Light tolerance [5]: tolerant of light exposure; pH [5]: 7.2±0.2; Stability ([5]; room temperature): stable at room temperature for months
2 | N=C(NCCCCCCNC(=N)NC(=N)Nc1ccc(Cl)cc1)NC(=N)Nc1ccc(Cl)cc1.O=C(O)[C@H](O)[C@@H](O)[C@H](O)[C@H](O)CO.O=C(O)[C@H](O)[C@@H](O)[C@H](O)[C@H](O)CO [CDG, chlorhexidine digluconate] |  |  |  | lowest ratio |  | high cytotoxicity; also recorded: too toxic | rank lower than PI | rapid and broad fungicidal activity; also recorded: effective |  | Contact time required for the same effect as PI and the novel IL (≥3 log10 reduction) (C. albicans (ATCC 24433); FIG. 2B, CDG 0.05%): 5 min
3 | OCl [hypochlorous acid] |  |  |  |  |  |  |  |  | well tolerated | Fungicidal activity (words) [6]: rapid fungicidal and sporicidal activity within one minute of exposure time; Fungicidal activity (words) ([6]; listed as Hypochlorous acid): highly effective against fungi; Tolerability / ocular safety (words) ([7]; listed as Hypochlorous acid): easily tolerated
4 | povidone iodine [PI] | highest ratios |  | highest ratios; also recorded: rank highest for F. solani | highest ratios | significantly lower amount of staining |  | good efficacy/toxicity ratio; also recorded: ranks second after the novel IL | rapid and potent fungicidal activity | ocular inflammation from long-term use has occurred | Reduction (kill of C. albicans) (C. albicans (ATCC 24433); PI 0.01-0.1%, within 120 min): < 1 log; Reduction (kill of C. albicans) (C. albicans (ATCC 24433); PI 0.5-1%, within 1 min): ≥ 3 log; Reduction in viable conidia ([2]; FIG. 2D, within 1 min, PI 0.5%, #3-IL 10 mM, CDG 0.05%): 2 log10; Tolerability on instillation into the eye ([7]; 1% concentration): well tolerated; Tolerability on instillation into the eye ([7]; 5% solution): acutely painful
5 | benzalkonium chloride [BAK] | lowest ratio | 2 log10 |  |  | significantly lower amount of staining |  |  | moderate antifungal activity |  | Reduction in viable colonies (C. albicans (ATCC 24433); within 60 min): 2 log10; Reduction in viable colonies (C. albicans (ATCC 24433); within 120 min): 3 log10; Fungicidal activity (words) (C. albicans (ATCC 24433); FIG. 1B, tenth dilution, within 120 min): fungicidal activity was not observed; Fungicidal activity (words) (C. albicans (ATCC 24433); full strength (10,000 u/mL PMB, 40 g/mL BAK, 1 mg/mL TMP), within 120 min): comparable to the commercially prepared Polytrim®
